Experiments:
barnyardgrass [1] = test: Test A preemergence; format: in vivo, Echinochloa crus-galli; conditions: Echinochloa crus-galli, pre-emergence, 240 h, 1000 g ai/ha, 0 to 100 scale, 0 no effect, 100 complete control, approx. 10 days, read-out: Barnyardgrass plant response rating
In short: (§1)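 Injury scores run from 0, no effect, to 100, complete control, judged by eye against untreated plants roughly 10 days after treatment. Chemicals carried a surfactant in a non-phytotoxic solvent and went onto loam–sand soil preemergence or onto one- to two-leaf seedlings postemergence.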

giant foxtail = test: Test A preemergence; format: in vivo, Setaria faberii; conditions: Setaria faberi, pre-emergence, 240 h, 1000 g ai/ha, 0 to 100 scale, 0 no effect, 100 complete control, approx. 10 days, read-out: Foxtail, Giant plant response rating
In short: as §1

rice = test: Test B flooded paddy test; format: in vivo, Oryza sativa; conditions: Oryza sativa; Flood, 250 g ai/ha; 0 to 100 scale where 0 is no effect and 100 is complete control; read-out: Plant response rating, Rice
In short: (§2)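 Post-emergence paddy-water application at the 2-leaf stage, with 3 cm flood kept for the whole test. Response was judged visually relative to controls after 13 to 15 greenhouse days, 0 indicating no effect and 100 complete control.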

sedge, umbrella = test: Test B flooded paddy test; format: in vivo, Cyperus difformis; conditions: Cyperus difformis, Flood, 250 g ai/ha; 0 to 100 scale where 0 is no effect and 100 is complete control; read-out: Plant response rating, Sedge, Umbrella
In short: as §2

Heteranthera limosa = test: Test B flooded paddy test; format: in vivo; conditions: Heteranthera limosa, Flood, 250 g ai/ha; 0 to 100 scale where 0 is no effect and 100 is complete control; read-out: Plant response rating, Ducksalad
In short: as §2

barnyardgrass [2] = test: Test B flooded paddy test; format: in vivo, Echinochloa crus-galli; conditions: Echinochloa crus-galli; Flood, 250 g ai/ha; 0 to 100 scale where 0 is no effect and 100 is complete control; read-out: Plant response rating, Barnyardgrass
In short: as §2

wheat, winter = test: Test C postemergence; format: in vivo, Triticum aestivum
In short: (§3)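 Rated visually on 0–100 (100 = complete control) after 13–15 days under glass. Treatments went onto freshly seeded loam/sand soil or onto emerged plants at the 1- to 4-leaf stage, using a surfactant-containing solvent formulation.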

galium = test: Test C postemergence; format: in vivo, Galium aparine; conditions: Galium, post-emergence
In short: as §3

lambsquarters = test: Test C postemergence; format: in vivo, Chenopodium album
In short: as §3

morningglory = test: Test C postemergence; format: in vivo, Ipomoea coccinea
In short: as §3

yellow nutsedge = test: Test C postemergence; format: in vivo, Cyperus esculentus
In short: as §3

ragweed = test: Test C postemergence; format: in vivo, Ambrosia elatior
In short: as §3

velvetleaf = test: Test C postemergence; format: in vivo, Abutilon theophrasti
In short: as §3

chickweed = test: Test C postemergence; format: in vivo, Stellaria media; conditions: Stellaria media, post-emergence
In short: as §3

[3] = 31 g ai/ha, postemergence, visual rating, scale 0 to 100 (0 no effect, 100 complete control), 13 to 15 days

Question: Which pest or weed control at 1000 g/ha (barnyardgrass [1]) does the source give for Clc1cnc(Oc2ccccc2-n2cc(C3CC3)nn2)nc1 [Compound 160, 5-chloro-2-[2-(4-cyclopropyl-1H-1,2,3-triazol-1-yl)phenoxy]pyrimidine] here?
Answer: 100%

Question: What about the pest or weed control at 1000 g/ha (giant foxtail) of the same molecule?
Answer: 100%

Question: What about the plant injury at 250 g/ha (rice) of the same molecule?
Answer: 35%

Question: What about the pest or weed control at 250 g/ha (sedge, umbrella) of the same molecule?
Answer: 75%

Question: And the pest or weed control at 250 g/ha (Heteranthera limosa)?
Answer: 80%

Question: And the pest or weed control at 250 g/ha (barnyardgrass [2])?
Answer: 35%

Question: What about the “Wheat plant response rating” value (wheat, winter; [3]) of the same molecule?
Answer: 5

Question: And the plant injury at 16 g/ha (wheat, winter; Triticum aestivum, post-emergence, 16 g ai/ha, postemergence, 0 is no effect, 100 is complete control, read-out: Plant response rating (0 to 100), Wheat)?
Answer: 0%

Question: What about the plant injury at 125 g/ha (wheat, winter; Triticum aestivum, post-emergence, 125 g ai/ha, postemergence, visual rating, scale 0 to 100 (0 no effect, 100 complete control), read-out: Plant response rating, Wheat) of the same molecule?
Answer: 5%

Question: What about the plant injury at 62 g/ha (wheat, winter; Triticum aestivum, post-emergence, Postemergence, 62 g ai/ha, scale 0 to 100 (0 no effect, 100 complete control), read-out: Plant response rating, Wheat) of the same molecule?
Answer: 5%

Question: And the pest or weed control at 16 g/ha (galium; 16 g ai/ha, postemergence, 0 is no effect, 100 is complete control, read-out: Plant response rating (0 to 100), Galium)?
Answer: 80%

Question: And the pest or weed control at 31 g/ha (galium; 31 g ai/ha, postemergence, visual rating, scale 0 to 100 (0 no effect, 100 complete control), 13 to 15 days, read-out: Galium plant response rating)?
Answer: 80%

Question: What about the pest or weed control at 125 g/ha (galium; 125 g ai/ha, postemergence, visual rating, scale 0 to 100 (0 no effect, 100 complete control), read-out: Plant response rating, Galium) of the same molecule?
Answer: 85%

Question: And the pest or weed control at 62 g/ha (galium; Postemergence, 62 g ai/ha, scale 0 to 100 (0 no effect, 100 complete control), read-out: Plant response rating, Galium)?
Answer: 95%

Question: What about the “Lambsquarters plant response rating” value (lambsquarters; [3]) of the same molecule?
Answer: 65

Question: What about the pest or weed control at 16 g/ha (lambsquarters; Chenopodium album, post-emergence, 16 g ai/ha, postemergence, 0 is no effect, 100 is complete control, read-out: Plant response rating (0 to 100), Lambsquarters) of the same molecule?
Answer: 65%

Question: What about the pest or weed control at 125 g/ha (lambsquarters; Chenopodium album, post-emergence, 125 g ai/ha, postemergence, visual rating, scale 0 to 100 (0 no effect, 100 complete control), read-out: Plant response rating, Lambsquarters) of the same molecule?
Answer: 95%

Question: What about the pest or weed control at 62 g/ha (lambsquarters; Chenopodium album, post-emergence, Postemergence, 62 g ai/ha, scale 0 to 100 (0 no effect, 100 complete control), read-out: Plant response rating, Lambsquarters) of the same molecule?
Answer: 70%

Question: And the “Morningglory plant response rating” value (morningglory; [3])?
Answer: 75

Question: What about the pest or weed control at 16 g/ha (morningglory; Ipomoea, post-emergence, 16 g ai/ha, postemergence, 0 is no effect, 100 is complete control, read-out: Plant response rating (0 to 100), Morningglory) of the same molecule?
Answer: 5%

Question: And the pest or weed control at 125 g/ha (morningglory; Ipomoea, post-emergence, 125 g ai/ha, postemergence, visual rating, scale 0 to 100 (0 no effect, 100 complete control), read-out: Plant response rating, Morningglory)?
Answer: 65%

Question: And the pest or weed control at 62 g/ha (morningglory; Ipomoea, post-emergence, Postemergence, 62 g ai/ha, scale 0 to 100 (0 no effect, 100 complete control), read-out: Plant response rating, Morningglory)?
Answer: 75%

Question: And the “Nutsedge, Yellow plant response rating” value (yellow nutsedge; [3])?
Answer: 5

Question: What about the pest or weed control at 16 g/ha (yellow nutsedge; Cyperus, post-emergence, 16 g ai/ha, postemergence, 0 is no effect, 100 is complete control, read-out: Plant response rating (0 to 100), Nutsedge, Yellow) of the same molecule?
Answer: 5%

Question: What about the pest or weed control at 125 g/ha (yellow nutsedge; Cyperus, post-emergence, 125 g ai/ha, postemergence, visual rating, scale 0 to 100 (0 no effect, 100 complete control), read-out: Plant response rating, Nutsedge, Yellow) of the same molecule?
Answer: 5%

Question: And the pest or weed control at 62 g/ha (yellow nutsedge; Cyperus, post-emergence, Postemergence, 62 g ai/ha, scale 0 to 100 (0 no effect, 100 complete control), read-out: Plant response rating, Nutsedge, Yellow)?
Answer: 5%

Question: What about the “Ragweed plant response rating” value (ragweed; [3]) of the same molecule?
Answer: 45

Question: And the pest or weed control at 16 g/ha (ragweed; Ambrosia artemisiifolia, post-emergence, 16 g ai/ha, postemergence, 0 is no effect, 100 is complete control, read-out: Plant response rating (0 to 100), Ragweed)?
Answer: 10%

Question: What about the pest or weed control at 125 g/ha (ragweed; Ambrosia artemisiifolia, post-emergence, 125 g ai/ha, postemergence, visual rating, scale 0 to 100 (0 no effect, 100 complete control), read-out: Plant response rating, Ragweed) of the same molecule?
Answer: 70%

Question: And the pest or weed control at 62 g/ha (ragweed; Ambrosia artemisiifolia, post-emergence, Postemergence, 62 g ai/ha, scale 0 to 100 (0 no effect, 100 complete control), read-out: Plant response rating, Ragweed)?
Answer: 60%

Question: What about the “Velvetleaf plant response rating” value (velvetleaf; [3]) of the same molecule?
Answer: 65

Question: What about the pest or weed control at 16 g/ha (velvetleaf; Abutilon theophrasti, post-emergence, 16 g ai/ha, postemergence, 0 is no effect, 100 is complete control, read-out: Plant response rating (0 to 100), Velvetleaf) of the same molecule?
Answer: 45%

Question: What about the pest or weed control at 125 g/ha (velvetleaf; Abutilon theophrasti, post-emergence, 125 g ai/ha, postemergence, visual rating, scale 0 to 100 (0 no effect, 100 complete control), read-out: Plant response rating, Velvetleaf) of the same molecule?
Answer: 90%

Question: What about the pest or weed control at 62 g/ha (velvetleaf; Abutilon theophrasti, post-emergence, Postemergence, 62 g ai/ha, scale 0 to 100 (0 no effect, 100 complete control), read-out: Plant response rating, Velvetleaf) of the same molecule?
Answer: 80%

Question: And the pest or weed control at 16 g/ha (chickweed; 16 g ai/ha, postemergence, 0 is no effect, 100 is complete control, read-out: Plant response rating (0 to 100), Chickweed)?
Answer: 50%

Question: What about the pest or weed control at 31 g/ha (chickweed; 31 g ai/ha, postemergence, visual rating, scale 0 to 100 (0 no effect, 100 complete control), 13 to 15 days, read-out: Chickweed plant response rating) of the same molecule?
Answer: 55%

Question: What about the pest or weed control at 125 g/ha (chickweed; 125 g ai/ha, postemergence, visual rating, scale 0 to 100 (0 no effect, 100 complete control), read-out: Plant response rating, Chickweed) of the same molecule?
Answer: 70%

Question: And the pest or weed control at 62 g/ha (chickweed; Postemergence, 62 g ai/ha, scale 0 to 100 (0 no effect, 100 complete control), read-out: Plant response rating, Chickweed)?
Answer: 80%
